Test results published in patent US20260327211A1, “MODULATORS OF A POTASSIUM CHANNEL AND OF TRPV1 CHANNEL AND USES THEREOF” (Bsense Bio Therapeutics Ltd., priority 2023, published 2026).
Values after ≈ are worked out from the molar mass of the structure shown. Read-outs that look alike come from different tables or passages of the source.

Assays:
hTRPV1 = molecular target: T1, hTRPV1 (Homo sapiens, UniProt Q8NER1); experiment: TRPV1 HCS, Fluo-8 calcium flux, capsaicin activation, CHO cells expressing hTRPV1; assay type: cell-based
T1 construct: CDS of NM_080704.4, inserted into the multiple cloning site of pcDNA3.1(+); host or cells: CHO/hKv7.2/3
Method: Cell culture: Chinese hamster ovary (CHO) cell-line cells with constitutive expression of human hTRPV1 channels (B'SYS GmbH, Switzerland) were cultured in F-12 nutrient mixture (Biological Industries) supplemented with 10% fetal bovine serum (Biological Industries) and 1% penicillin-streptomycin (Biological Industries) in a humidified 5% CO2 incubator at 37° C. To maintain the stable expression of hTRPV1, antibiotic selection (G418 500 μg/ml) was applied.
High content screen (HCS) using Fluo-8 No Wash Calcium flux Assay Kit: Fluo-8 No Wash Calcium Assay Kit (Abcam, ab112129) was used with CHO stably or transiently expressing TRPV1 to screen compounds against the hTRPV1 ion channel target. The cells were pre-loaded with Fluo-8AM which is membrane permeable. The AM groups of the Fluo-8AM were then being cleaved by intracellular esterase, trapping the Fluo8 in the cell. […] The relative fluorescence signal was calculated following background subtraction, comparing the fluorescence at each time point to its maximal level measured following Ionomycin application in the end.
According to optimization process to achieve uniform and consistent screening condition of molecules the following protocol was established: Cells were seeded in 384-well, black-walled, clear-bottomed, at a density of 5,000 cells per well 24 h before the assay conductance and incubated overnight in their normal growth medium. On the experiment day the medium was replaced in each well with HBSS, HEPES, and compound/vehicle (0.2% DMSO). Dye solution (prepared according to the manufacturer) was added to the wells and plates are incubated for 1.5 h light-protected in room temperature. The Tecan Spark plate reader injectors were then primed with capsaicin and Ionomycin for channel activation and data normalization, respectively. […] To calculate IC50 values, the data was fitted to sigmoidal regression line using Prism GraphPad. The fitting was constrained to a minimum of 0 and a maximal response of about 1 unless a different maximal response could be identified.

hKv7.2/3 = molecular target: T2, hKv7.2/3 (Homo sapiens, UniProt O43525+O43526); experiment: Kv7.2/7.3 HCS, FLIPR potassium (thallium) assay, CHO/hKv7.2/3; assay type: cell-based; details: for EC50: Table 1, read-out: Kv7.2/7.3 IC50
T2 construct: host or cells: CHO
Method: Cell culture: Chinese hamster ovary (CHO) cell-line cells with a constitutive expression of human Kv7.2/3 channels (B'SYS GmbH, Switzerland) were cultured in F-12 nutrient mixture (Biological Industries) supplemented with 10% fetal bovine serum (Biological Industries) and 1% penicillin-streptomycin (Biological Industries) in a humidified 5% CO2 incubator at 37° C. To maintain the stability of human Kv7.2/7.3 expression antibiotic selection was added (Puromycin 5 μg/ml).
High content screen (HCS) using FLIPR Potassium Assay Kit: A FLIPR Potassium Assay Kit (R8222 FLIPR Potassium Assay Explorer Kits, Molecular Devices) was used with the CHO/hKv7.2/3 cell line to screen molecules against the hKv7.2/7.3 ion channel target. The assay exploits the permeability of thallium ions (Tl+) through potassium (K+) channels. In this assay, Tl+ indicator dye is used to produce a bright fluorescent signal upon the binding to Tl+ conducted through the potassium channels. The intensity of the Tl+ signal is proportional to the number of potassium channels in the open state. Therefore, it provides a functional indication of the potassium channel activity. To activate the voltage-gate potassium channels, the cells were stimulated with a mixture of K+ and Tl+ to depolarize the cell membrane. The fluorescence increase in the assay represents the influx of Tl+ into the cell specifically through the potassium channel, providing a functional read-out of hKv7.2/3 activity using a fluorescent plate reader coupled with injectors used to activate the channels.
According to optimization process to achieve uniform and consistent screening conditions the following protocol was established: Cells were seeded in 384-well, black-walled, clear-bottomed Greiner #781091, at a density of 5000 cells per well 24 hours before the assay conductance and incubated overnight in their normal growth medium. On the experiment day the medium was replaced with HBSS, HEPES, and the test compound/vehicle (0.2% DMSO). Dye solution (prepared according to the manufacturer) was added to the plates, which were incubated for 1.5 h light-protected in room temperature. Tecan Spark reader plate injectors were primed with Tl+(1 mM Tl2SO4) or Tl++K+(1 mM Tl2SO4; 5 mM K2SO4) for channel activation and data correction. […] To calculate EC50 values, the data was fitted to sigmoidal regression using Prism GraphPad. The fitting was constrained to a minimum of 1 and a maximal response of about 3.6 unless a different maximal response could be clearly identified.

[1] = Human liver microsome metabolic stability; assay type: in vitro ADME; details: human liver microsomes; for microsomal CLint at 1 µM: read-out: HLM Clint; for HLM Clint: 1 µM
Text: Liver microsomes which are subcellular particles derived from endoplasmic reticulum of hepatic cells were used for evaluating the tested compounds. These particles are rich in drug metabolizing enzymes, including the cytochrome p-450 family. Liver microsomes are a recommended test system for various in vitro drug metabolism and pharmacokinetics (DMPK) studies. CLint values lower than […] are considered suitable for drug development.
Liver Microsome Metabolic Stability Assay (NADPH): The liver microsome stability assay was evaluated through pre-incubation with HLMs. A liver microsome mixture (pooled from multiple donors) at a concentration of 0.5 mg/mL, and the test compound at a concentration of 1 μM, were warmed in the presence of a NADPH regenerating system (about 1.0 mM) at 37° C. Positive controls, including testosterone (a CYP3A4 substrate), propafenone (a CYP2D6 substrate), and diclofenac (a CYP2C9) substrate, were concurrently incubated with the HLMs, in the presence of the NADPH regenerating system (1.0 mM). Samples were extracted during incubation at multiple intervals: 0, 5, 15, 30, 45 and 60 minutes. To terminate the reactions, the samples were promptly mixed with cooled acetonitrile that included an internal standard (IS). An additional compound was incubated with the HLMs in the absence of the NADPH regeneration system, from which a sample was taken at the 60-minute interval.
The clearance of the test compound in the samples was subsequently analyzed by LC-MS/MS based on the peak area ratios of the analyte to the IS.
The following equation was used to calculate the microsome clearance: […]
Liver weight: 40 grams/kg, 30 grams/kg, 32 grams/kg, 20 grams/kg and 88 grams/kg, for rat, monkey, dog, human and mouse, respectively.

hERG = hERG (Homo sapiens, UniProt Q12809); experiment: hERG HCS, FLIPR potassium assay, CHO/hERG; assay type: cell-based; set-up: host or cells: CHO; details: Table 1; for IC50: read-out: hERG IC50; for hERG IC50 (inhibition in parentheses): at highest concentration shown
Method: Cell culture: Chinese hamster ovary (CHO) cell-line cells with a constitutive expression of human hERG channels (B'SYS GmbH, Switzerland) were cultured in F-12 nutrient mixture (Biological Industries) supplemented with 10% fetal bovine serum (Biological Industries) and 1% penicillin-streptomycin (Biological Industries) in a humidified 5% CO2 incubator at 37° C. To maintain the hERG expression stability of the CHO cell line, antibiotics selection (G418 […] and Hygromycin 500) was applied.
FLIPR Potassium Assay Kit: The FLIPR Potassium Assay Kit (R8222 FLIPR Potassium Assay Explorer Kits, Molecular Devices) was used with CHO/hERG cell line, for screening compounds against the hERG ion-channel off-target, as detailed hereinabove.
According to optimization process, to achieve a uniform and consistent screening condition of molecules, the following protocol was established: Cells were seeded in 384-well, black-walled, clear-bottomed, at a density of 7,500 cells per well 24 hours before the assay conductance and incubated overnight in their normal growth medium. On the experiment day the medium was replaced with HBSS, HEPES, and the tested compound/vehicle (0.2% DMSO). Dye solution (prepared according to the manufacturer) was added to the wells and plates were incubated for 1.5 hour light-protected in room temperature. The Tecan Spark plate-reader injectors were primed with Tl+(1 mM Tl2SO4) or Tl++K+(1 mM Tl2SO4; 10 mM K2SO4) for channel activation and data correction. […]. To calculate IC50 values, the data was fitted to sigmoidal regression using Prism GraphPad.

Kinetic solubility = assay type: physicochemical; details: Table 1; for solubility kinetic: hhbs buffer, aqueous buffer, read-out: Kinetic Sol.
Method: Solubility measurements were performed prior to each in vitro assay to ensure accurate dose response and reproducibility. Briefly, each compound was dissolved to 60 mM in DMSO and calibration curve was performed from 1.5-200 μM using absorbance spectra analysis and determination of λmax. Calibration curve served as the readout for all following assays. The 60 mM stock solution was used to make a 120 μM target concentration of 0.2% DMSO in the appropriate buffer of the in vitro related assay (i.e. HHBS buffer). Solubilized compounds were vortex for 10 minutes followed by centrifugation for 15 minutes in 5000 RPM and the supernatant was recovered for absorbance spectra analysis between 200-400 nm.

[2] = Log D, 1-octanol/buffer shake flask; assay type: physicochemical; details: pH 7.4
Method: The Log D assay was a miniaturized 1-octanol/buffer shake flask method followed by LC/MS/MS analysis, as follows.
The test compounds or control compounds Nadolol, Chlorpromazine Hydrochloride and Propranolol Hydrochloride were dissolved in 100% DMSO to obtain 10 mM solutions, which were transferred to 96-well polypropylene cluster tubes; 2 μL/well. 1-octanol saturated with 0.1 M phosphate buffer (149 μL/well) and 0.1 M phosphate buffer saturated with 1-octanol (149 μL/well) were added to the tubes, respectively, and each tube was vigorously mixed for 2 minutes and then shaked at a speed of 800 rpm at room temperature for 1 hour, followed by centrifugation at 4000 rpm for 5 minutes at room temperature. Thereafter, for the test compounds and the Chlorpromazine Hydrochloride and Propranolol Hydrochloride, the sample of the buffer layer was diluted by a factor of 50-fold and the sample of 1-octanol layer was diluted by a factor of 2000-fold with internal standard (IS) solution. For Nadolol, the sample of the buffer layer was diluted by a factor of 1000-fold and the sample of 1-octanol layer was diluted by a factor of 400-fold with internal standard (IS) solution. The samples were analyzed using a triple quadrupole mass spectrometer. Peak areas were corrected by dilution factors and embedded internal standard, and the ratio of the corrected peak areas was used to calculate the Log D value. The Log D value for each compound will be calculated by the following equation: […]

[3] = cells expressing TRPV1, read-out: TRPV1 IC50
[4] = 1-octanol/phosphate buffer, read-out: LogD

T2 sequence (O43525 whole entry): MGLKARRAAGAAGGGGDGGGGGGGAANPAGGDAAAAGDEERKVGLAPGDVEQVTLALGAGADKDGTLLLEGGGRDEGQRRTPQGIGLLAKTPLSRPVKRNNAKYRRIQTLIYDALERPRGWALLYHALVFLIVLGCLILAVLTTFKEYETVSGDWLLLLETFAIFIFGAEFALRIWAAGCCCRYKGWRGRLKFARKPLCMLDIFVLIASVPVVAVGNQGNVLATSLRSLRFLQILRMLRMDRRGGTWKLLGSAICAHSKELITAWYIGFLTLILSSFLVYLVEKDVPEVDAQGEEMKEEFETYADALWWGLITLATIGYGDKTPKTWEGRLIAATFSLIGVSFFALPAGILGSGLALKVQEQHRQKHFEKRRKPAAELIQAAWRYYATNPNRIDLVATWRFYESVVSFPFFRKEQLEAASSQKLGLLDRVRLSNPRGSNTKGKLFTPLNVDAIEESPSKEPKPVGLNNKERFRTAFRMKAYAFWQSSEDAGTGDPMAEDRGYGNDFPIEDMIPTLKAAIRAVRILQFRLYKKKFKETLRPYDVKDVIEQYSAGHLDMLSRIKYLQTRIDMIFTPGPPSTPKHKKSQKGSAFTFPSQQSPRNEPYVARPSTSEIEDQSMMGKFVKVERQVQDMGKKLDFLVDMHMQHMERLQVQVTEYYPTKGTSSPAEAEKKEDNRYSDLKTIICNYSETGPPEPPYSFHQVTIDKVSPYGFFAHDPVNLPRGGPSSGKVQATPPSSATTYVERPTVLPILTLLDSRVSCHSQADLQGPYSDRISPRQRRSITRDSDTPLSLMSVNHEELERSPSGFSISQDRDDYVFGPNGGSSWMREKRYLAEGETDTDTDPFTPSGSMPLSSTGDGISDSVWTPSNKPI
T2 sequence (O43526 whole entry): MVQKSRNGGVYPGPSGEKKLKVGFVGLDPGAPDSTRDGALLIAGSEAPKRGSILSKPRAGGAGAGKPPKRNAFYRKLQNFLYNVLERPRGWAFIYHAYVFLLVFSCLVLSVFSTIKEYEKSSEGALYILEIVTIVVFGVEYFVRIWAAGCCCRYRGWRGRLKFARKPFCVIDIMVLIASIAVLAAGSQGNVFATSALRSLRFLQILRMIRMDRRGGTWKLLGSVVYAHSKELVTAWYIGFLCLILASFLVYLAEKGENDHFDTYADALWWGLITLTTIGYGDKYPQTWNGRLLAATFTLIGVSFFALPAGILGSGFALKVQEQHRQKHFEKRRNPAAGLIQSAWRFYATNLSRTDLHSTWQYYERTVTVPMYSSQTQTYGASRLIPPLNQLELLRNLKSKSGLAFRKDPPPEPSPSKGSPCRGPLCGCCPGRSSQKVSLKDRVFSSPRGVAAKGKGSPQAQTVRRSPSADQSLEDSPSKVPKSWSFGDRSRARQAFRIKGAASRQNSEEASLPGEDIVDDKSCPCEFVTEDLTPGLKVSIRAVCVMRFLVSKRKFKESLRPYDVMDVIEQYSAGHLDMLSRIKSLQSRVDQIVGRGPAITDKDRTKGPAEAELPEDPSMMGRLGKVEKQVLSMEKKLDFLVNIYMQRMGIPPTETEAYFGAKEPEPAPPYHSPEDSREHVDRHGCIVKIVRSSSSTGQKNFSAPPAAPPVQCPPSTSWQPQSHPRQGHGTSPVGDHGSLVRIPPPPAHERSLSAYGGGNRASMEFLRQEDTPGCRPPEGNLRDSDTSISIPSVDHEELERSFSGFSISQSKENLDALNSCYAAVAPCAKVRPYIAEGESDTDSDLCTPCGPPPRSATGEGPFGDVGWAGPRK
T1 sequence (Q8NER1 whole entry): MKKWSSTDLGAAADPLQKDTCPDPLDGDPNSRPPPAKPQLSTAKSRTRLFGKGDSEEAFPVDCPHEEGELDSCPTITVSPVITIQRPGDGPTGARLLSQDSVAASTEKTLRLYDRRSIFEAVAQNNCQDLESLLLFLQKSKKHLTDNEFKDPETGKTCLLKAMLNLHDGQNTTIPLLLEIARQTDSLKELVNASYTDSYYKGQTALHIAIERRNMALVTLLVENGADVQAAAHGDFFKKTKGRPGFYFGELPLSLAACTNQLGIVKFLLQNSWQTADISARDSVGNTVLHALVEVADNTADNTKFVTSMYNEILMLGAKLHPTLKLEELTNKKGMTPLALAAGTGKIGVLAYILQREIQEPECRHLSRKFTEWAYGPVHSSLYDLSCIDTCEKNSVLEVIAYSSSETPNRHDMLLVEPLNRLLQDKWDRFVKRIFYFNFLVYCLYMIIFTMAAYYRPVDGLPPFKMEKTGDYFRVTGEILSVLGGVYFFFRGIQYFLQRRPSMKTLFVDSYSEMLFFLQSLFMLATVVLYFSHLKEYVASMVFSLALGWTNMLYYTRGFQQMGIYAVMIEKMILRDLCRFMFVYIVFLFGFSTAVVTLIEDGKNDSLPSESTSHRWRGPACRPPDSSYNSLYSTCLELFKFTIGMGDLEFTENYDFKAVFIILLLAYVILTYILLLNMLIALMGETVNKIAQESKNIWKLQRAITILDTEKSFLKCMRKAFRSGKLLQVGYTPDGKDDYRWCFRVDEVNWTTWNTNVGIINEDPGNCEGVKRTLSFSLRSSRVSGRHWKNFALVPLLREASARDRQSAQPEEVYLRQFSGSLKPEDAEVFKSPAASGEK
Chain of hERG (Q12809 whole entry): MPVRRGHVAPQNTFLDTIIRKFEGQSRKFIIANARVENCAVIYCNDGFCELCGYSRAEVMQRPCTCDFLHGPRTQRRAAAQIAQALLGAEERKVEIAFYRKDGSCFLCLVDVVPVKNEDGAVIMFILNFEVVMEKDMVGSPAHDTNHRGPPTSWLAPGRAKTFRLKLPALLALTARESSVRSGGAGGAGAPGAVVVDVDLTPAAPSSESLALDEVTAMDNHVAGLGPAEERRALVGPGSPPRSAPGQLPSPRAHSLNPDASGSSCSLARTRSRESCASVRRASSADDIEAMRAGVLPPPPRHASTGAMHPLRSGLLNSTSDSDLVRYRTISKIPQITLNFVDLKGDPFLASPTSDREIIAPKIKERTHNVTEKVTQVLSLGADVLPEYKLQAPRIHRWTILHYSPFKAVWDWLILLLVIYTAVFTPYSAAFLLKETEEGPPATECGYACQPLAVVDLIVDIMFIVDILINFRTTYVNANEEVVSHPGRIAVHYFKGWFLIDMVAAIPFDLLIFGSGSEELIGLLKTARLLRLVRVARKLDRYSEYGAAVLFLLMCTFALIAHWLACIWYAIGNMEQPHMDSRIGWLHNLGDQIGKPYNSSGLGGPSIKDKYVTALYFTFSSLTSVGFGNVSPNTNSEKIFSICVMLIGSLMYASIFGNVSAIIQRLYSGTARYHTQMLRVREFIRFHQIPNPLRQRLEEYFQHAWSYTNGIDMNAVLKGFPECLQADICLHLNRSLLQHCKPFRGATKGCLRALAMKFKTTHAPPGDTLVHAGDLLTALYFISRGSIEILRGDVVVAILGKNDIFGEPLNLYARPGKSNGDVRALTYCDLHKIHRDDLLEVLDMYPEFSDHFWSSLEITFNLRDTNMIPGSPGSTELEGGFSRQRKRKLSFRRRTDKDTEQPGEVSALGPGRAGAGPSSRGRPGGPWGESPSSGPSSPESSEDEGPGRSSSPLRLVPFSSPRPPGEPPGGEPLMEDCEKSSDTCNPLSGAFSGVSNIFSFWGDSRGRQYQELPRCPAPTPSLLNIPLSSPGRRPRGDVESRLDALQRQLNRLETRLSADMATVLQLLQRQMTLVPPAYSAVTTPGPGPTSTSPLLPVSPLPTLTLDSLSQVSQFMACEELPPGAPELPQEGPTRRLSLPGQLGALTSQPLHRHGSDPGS

IC50 (hTRPV1; [3]) [µM]	microsomal CLint at 1 µM [1] [µL/min/mg]	EC50 (hKv7.2/3) [µM]	solubility kinetic (Kinetic solubility) [µM]	logD [2, 4]	Structure (SMILES)	other results
					CC(C)c1cc(Cl)cc(Cl)c1C(O)c1ccc(F)c(CC(=O)NCC2(O)CCC2)c1 (single isomer, unassigned) [Compound 533p1]	TRPV1 modulation (words) (hTRPV1): inhibits hTRPV1; TRPV1 modulation (words) (hTRPV1; listed as 533P1): TRPV1 inhibition; Kv7.2/3 activation (words) (hKv7.2/3): lower; Kv7.2/3 activation (words) (hKv7.2/3; listed as 533P1): primarily activation of Kv7.2/3
1.1	686	1.8			COC[C@@H](CO)NC(=O)Cc1cc(Sc2c(Cl)cc(Cl)cc2C(C)C)ccc1F [Compound 414]	IC50 (hTRPV1; Table 2, read-out: Experimental IC50): 1.1 µM; IC50 (hERG): > 2.5 µM; hERG IC50 (inhibition in parentheses) (hERG): 0%
26.6	89.1	5.6			CC(C)c1cc(Cl)cc(Cl)c1C(O)c1ccc(F)c(CC(=O)NCC(C)(C)O)c1 (centres unmarked) [Compound 417]	IC50 (hERG): > 2.5 µM; hERG IC50 (inhibition in parentheses) (hERG): 0%
					CC(C)c1cc(Cl)cc(Cl)c1Sc1ccc(F)c(CC(=O)N[C@H]2C[C@H](O)C2)c1 [Compound 480]	IC50 (hTRPV1): 1.4 µM
3.2		4.7			Cc1cn(-c2ccc(F)c(CC(=O)NCCOCCOCC(C)(C)O)c2)c2c(Cl)cc(Cl)cc12 [Compound 541]	HLM Clint [1]: 772.2 µL/min/mg; Kinetic Sol. (Kinetic solubility): 2; logD [2]: 4.78
1		12			Cc1cn(-c2ccc(F)c(CC(=O)NCCO)c2)c2c(Cl)cc(Cl)cc12 [Compound 552]	HLM Clint [1]: 27.2 µL/min/mg; Kinetic Sol. (Kinetic solubility): 5; logD [2]: 4.77
10	120	3	27 (≈ 12.2 µg/mL)	4.47	CC(C)c1cc(Cl)cc(Cl)c1C(=O)c1ccc(F)c(CC(=O)NCC2(O)CCC2)c1 [Compound 569]	
3	441	7	24 (≈ 10.5 µg/mL)	4.34	CC(C)c1cc(Cl)cc(Cl)c1C(=O)c1ccc(F)c(CC(=O)NCC2(O)CC2)c1 [Compound 573]	
3.3	27.3	5.2	10 (≈ 3.99 µg/mL)	4.19	O=C(Cc1cncc(-n2cc(Cl)c3cc(Cl)cc(Cl)c32)c1)NCCO [Compound 649]	
	38.1	8	6 (≈ 2.64 µg/mL)	3.49	O=C(Cc1cncc(-n2cc(Cl)c3cc(Cl)cc(Cl)c32)c1)N[C@@H]1COC[C@@H]1O [Compound 662]	TRPV1 IC50 (hTRPV1; cells expressing TRPV1): agonist
	53.6	5.9	26 (≈ 11.5 µg/mL)	3.52	O=C(Cc1cncc(-n2cc(Cl)c3cc(Cl)cc(Cl)c32)c1)N[C@H]1COC[C@@H]1O [Compound 663]	
